Measurements taken from article PMC10367051, “Comprehensive Mechanistic View of the Hydrolysis of Oxadiazole-Based Inhibitors by Histone Deacetylase 6 (HDAC6)” (ACS Chemical Biology, 2023).
Positions count from the first letter of the chain named.

How the values were obtained:
HDAC6(H574A) mutant = molecular target: T1, HDAC6(H574A) mutant (Danio rerio, UniProt F8W4B7, H574A); experiment: Inhibitor hydrolysis in vitro by HDAC6(H574A) mutant (LC-MS/MS); type: biochemical; settings: 20 μM compound, 2 μM enzyme, 30 °C
T1 construct: Danio rerio HDAC6 (amino acids 440–798; zHDAC6); His (N, cleaved yes); MBP (N, cleaved yes); made in house; host or cells: RIPL Escherichia coli
T1 sequence (F8W4B7 440-798 H574A): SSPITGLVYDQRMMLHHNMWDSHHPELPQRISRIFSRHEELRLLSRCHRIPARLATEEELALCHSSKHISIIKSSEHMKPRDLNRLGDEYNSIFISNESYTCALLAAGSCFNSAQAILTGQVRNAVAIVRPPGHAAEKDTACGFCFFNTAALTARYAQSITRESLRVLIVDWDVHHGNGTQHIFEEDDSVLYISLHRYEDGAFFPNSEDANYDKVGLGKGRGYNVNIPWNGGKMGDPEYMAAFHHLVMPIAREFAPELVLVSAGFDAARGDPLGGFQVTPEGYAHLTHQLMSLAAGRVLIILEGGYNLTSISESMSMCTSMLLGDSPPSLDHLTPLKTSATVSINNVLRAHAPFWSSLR
Method: The zHDAC6 mutants (Y745F and H574A) were constructed using the Quick-change site-directed mutagenesis protocol with the pEC566-zHDAC6 expression plasmid as a template. Both mutants were expressed and purified as described above for wild-type zHDAC6 (Figure S2).
(§1) Mass spectrometry quantification of inhibitors/reaction products was carried out with a Shimadzu LCMS-8040 instrument (Shimadzu, HPLC Prominence system). Analytes were separated on a Kinetex XB-C18 2.6 μm, 100 Å column (50 × 2.1 mm; Phenomenex) in a linear 15–60% CH3CN/H2O gradient containing 0.1% formic acid at a flow rate of 0.8 mL min^–1 over 4 min. Multiple reaction monitoring (MRM) parameters were optimized for each analyte, and corresponding major CID fragments were used for quantification. Analytes were quantified using corresponding calibration curves generated from pure compounds dissolved in water.
[…] […] Four microliter aliquots of reaction mixtures were injected into the system directly from the 96-well plate, and inhibitors/reaction products were quantitated as described above.

wild-type zHDAC6 = molecular target: T2, wild-type zHDAC6 (Danio rerio, UniProt F8W4B7); experiment: Inhibitor hydrolysis in vitro by purified wild-type HDAC6 (LC-MS/MS); type: biochemical; settings: 20 μM 8, 2 μM zHDAC6, 30 °C
T2 construct: Danio rerio HDAC6 (amino acids 440–798; zHDAC6); His (N, cleaved yes); MBP (N, cleaved yes); made in house; host or cells: RIPL Escherichia coli
T2 sequence (F8W4B7 440-798): T1 sequence (F8W4B7 440-798 H574A) with A135H
Method: The second catalytic domain of Danio rerio HDAC6 (amino acids 440–798; zHDAC6) was expressed in RIPL Escherichia coli as described previously using the pEC566-zHDAC6 expression vector.[16],[38] Briefly, bacteria were incubated at 37 °C with shaking (250 rpm) until the optical density reached an OD600 = 0.5. Then, the culture was cooled to 18 °C for 1 h, and recombinant protein expression was induced by the addition of 75 μM isopropyl β-D-1-thiogalactopyranoside together with 200 μM ZnSO4. The culture was grown at 18 °C for an additional 18 h and harvested by centrifugation at 5500g for 15 min. […] The purity of protein preparations was monitored by SDS-PAGE (Figure S2).
as §1, with “Analytes were separated on a Kinetex XB-C18 2.6 μm, 100 Å column (50 × 2.1 mm; Phenomenex) in a linear 15–60% CH3CN/H2O gradient containing 0.1% formic acid at a flow rate of 0.8 mL min^–1 over 4 min.” left out
[…] Four microliter aliquots of reaction mixtures were injected into the system directly from the 96-well plate, and inhibitors/reaction products were quantitated as described above.

[1] = test system: HEK293/HDAC6 cell lysates (stably transfected with human HDAC6); experiment: Inhibitor hydrolysis in HEK293/HDAC6 cell lysates (LC-MS/MS); type: in vitro ADME; settings: 20 μM 8, 2.5 mg mL^–1 protein, 37 °C
Method: HEK293 cells stably transduced with full-length human HDAC6 were generated following the protocol published previously.[40] Briefly, Lenti-X 293T and HEK293T cells were grown in T75 flasks in the DMEM/F-12/10% fetal bovine serum (FBS) medium under an atmosphere containing 5% CO2 at 37 °C. The Lenti-X 293T cells were transfected with the combination of pMD.2G, psPAX2, and pHR_CMV_MM320_hsHD6 (Figure S2) using Lipofectamine2000 (Invitrogen) according to the manufacturer’s protocol. Three days post-transfection, the virion-rich medium was collected by centrifugation, supplemented with polybrene (final concentration 10 μg mL^–1), and added to adherent HEK293T cells grown to 100% confluency. Three days post-infection, transduced HEK293T cells were expanded in FreeStyle 293 medium (GIBCO) supplemented with 1% FBS in an Erlenmeyer flask (suspension culture, 110 RPM). Transduction efficacy was determined by flow cytometry analysis to be >95%.
Mass spectrometry quantification of inhibitors/reaction products was carried out with a Shimadzu LCMS-8040 instrument (Shimadzu, HPLC Prominence system). […] Multiple reaction monitoring (MRM) parameters were optimized for each analyte, and corresponding major CID fragments were used for quantification. Analytes were quantified using corresponding calibration curves generated from pure compounds dissolved in water. […]

HEK293T cell lysates = experiment: Inhibitor hydrolysis in HEK293T cell lysates (LC-MS/MS); type: in vitro ADME; settings: 20 μM 8, 2.5 mg mL^–1 protein, 37 °C
Method: as §1
HEK293T cells and the HEK293T cell line stably transfected with human HDAC6 were grown in FreeStyle 293 medium supplemented with 1% FBS. Cells were harvested by centrifugation at 500g for 5 min, and cell pellets were resuspended in the lysis buffer (50 mM HEPES, 140 mM NaCl, 10 mM KCl, and 0.5% NP-40 at pH 7.4). Following short sonication (3 × 5 s), the cell lysates were centrifuged at 20,000g for 10 min, supernatants were transferred to fresh tubes, and the total protein concentration was adjusted to 4 mg mL^–1 by the addition of the lysis buffer. […] Following 15 min incubation on ice, stopped reactions were centrifuged at 20,000g for 10 min, and supernatants were analyzed by LC–MS as described above.

CS(=O)(=O)N(Cc1ccc(-c2nnc(C(F)F)o2)cn1)c1cccc(Cl)c1 [compound 8]
hydrolysis by the HDAC6(H574A) mutant (HDAC6(H574A) mutant): no hydrolysis was observed
time of near-complete depletion of the inhibitor (wild-type zHDAC6): approximately 120 min
time to full hydrolysis of the inhibitor (wild-type zHDAC6): < 180 min
efficiency of hydrolysis in HEK293/HDAC6 lysate versus HEK293 lysate [1]: more efficient
hydrolysis in HEK293/HDAC6 cell lysate [1]: hydrolyzed 8 to 6 and 4
hydrolysis in HEK293T cell lysate (HEK293T cell lysates): hydrolyzed 8 to 6 and 4
